Values quoted from earlier work as cited in US20040167132A1, “Methods of treating conditions associted with an Edg-2 receptor” (priority 2003, published 2004).
Counter-ions that a name gives are not always drawn.

Legend:
[1] = target: Adrenergic α1 non-selective
[2] = target: Serotonin 5-HT1, non-selective; settings: radioligand; Wistar rat cerebral cortex; historical value
Angiotensin AT2 = target: T1, Angiotensin AT2 (Homo sapiens, UniProt P50052); settings: radioligand; Human recombinant Hela cells; historical value
T1 construct: expressed in transfected cells; host or cells: HeLa cells
T1 sequence (P50052 1-363): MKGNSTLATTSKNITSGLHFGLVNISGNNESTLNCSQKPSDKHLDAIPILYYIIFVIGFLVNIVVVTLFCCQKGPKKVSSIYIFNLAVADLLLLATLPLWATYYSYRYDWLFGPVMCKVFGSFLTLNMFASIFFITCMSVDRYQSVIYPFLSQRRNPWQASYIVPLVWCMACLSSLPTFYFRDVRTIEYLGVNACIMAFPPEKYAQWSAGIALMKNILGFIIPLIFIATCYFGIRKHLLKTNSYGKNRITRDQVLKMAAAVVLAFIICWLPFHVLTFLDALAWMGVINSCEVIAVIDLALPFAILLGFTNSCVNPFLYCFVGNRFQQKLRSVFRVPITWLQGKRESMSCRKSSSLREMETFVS

Adrenergic β = settings: radioligand; Wistar rat brain; historical value

COc1cc2nc(N3CCN(C(=O)c4ccco4)CC3)nc(N)c2cc1OC [^3H Prazosin, Prazosin]
Kd [1]: 0.29 nM

NCCc1c[nH]c2ccc(O)cc12 [^3H Serotonin (5-HT) Trifluoroacetate, Serotonin (5-HT) Trifluoroacetate]
Kd [2]: 0.61 nM

CGP-42112A [^125I CGP-42112A]
Kd (Angiotensin AT2): 0.012 nM

CCCc1ccccc1OCC(O)CNC(C)C (stereo not shown) [^3H Dihydroaplenolol, Dihydroaplenolol]
Kd (Adrenergic β): 0.5 nM
